Results from paper PMC8518114, “Safety, tolerability and pharmacokinetics of emodepside, a potential novel treatment for onchocerciasis (river blindness), in healthy male subjects” (British Journal of Clinical Pharmacology, 2021).
Where two headings read alike, the source gives them in different places.

Experiment: Plasma pharmacokinetics of emodepside, multiple ascending dose (MAD) study
Type: in vivo, human
Settings: for AUC 0–24 /D / C max /D / AUC last /D / t ½ 0–24 (dominant half-life) / AUC 0–24 / Cmax: mean (CV%); for t ½ 0–24 (dominant half-life): Day 10, terminal slope of log concentration–time (0–24 hr) curve; for Cmax/Ctrough ratio: after the last dose on Day 10; for MRT: Day 1, mean (CV%); for AUC 0–24 / Cmax: HPLC-MS/MS; for CL/F: read-out: CL ss /F (converted); for Vd/F: read-out: V z /F; for half-life: read-out: Terminal t ½ (converted)
Protocol: Emodepside and placebo were supplied as a LSF and a standard immediate‐release (IR) tablet. The LSF was a 0.1% (w/v) solution containing 1 mg emodepside/mL. Conventional IR tablets containing emodepside in crystalline form were supplied in 2 dosage strengths, 5 and 20 mg, for the single ascending dose (SAD) study.
Blood samples (5 mL) were collected by venepuncture or via a cannula into EDTA tubes and immediately placed on ice. Samples were centrifuged at 1500 g for 10 minutes at 4°C. The plasma was aliquoted into 2 polypropylene tubes, which were stored at −20°C. Blood samples for PK analysis were taken at the following time points: • SAD: predose and 0.5, 1, 1.5, 2, 2.5, 3, 4, 5, 6, 8, 12, 24, 36, 48, 72, 96, 120, 144 and 168 hours, and 21 days postdose (cohort 1–9) or predose and 0.5, 1, 3, 6, 8, 12, 24, 36, 48, 72, 96, 120, 144 and 168 hours, and 10, 14, 18 and 21 days postdose (cohort 10). • Multiple ascending dose (MAD), as below: • on Day 1: predose and at 0.25, 0.5, 1, 1.5, 2, 2.5, 3, 4, 6, 8, 12 and 15 hours postdose • on Days 2–9: before the morning dose • on Day 10: before and at 0.25, 0.5, 1, 1.5, 2, 2.5, 3, 4, 6, 8, 12 and 15 hours • on Days 11, 12, 13, 14, 15, 18, 21, 24 and 30.
Emodepside plasma concentrations were determined by a validated high performance liquid chromatography–tandem mass spectrometry assay, using a Alltima C18 5 μm 150 mm x 2.1 mm column and an Applied Biosystems API4000 Turbo Ion Spray detector using positive ion mode. Analyst version 1.3.2 or 1.6.3 software, obtained from AB Sciex UK Ltd, Warrington, UK was used for chromatogram data analysis and quantitative calculations. Deuterated emodepside‐D16 was used as the internal standard. The lower limit of quantitation for emodepside in plasma was 1 ng/mL. Values below this limit were not used to calculate the PK parameters, except values that were below the limit of quantification before Cmax, which were set to zero.
The highest observed plasma concentration (Cmax) was determined directly from concentration–time data, as was the time to reach maximum plasma concentration (tmax). The area under the plasma concentration–time curve from time zero (predose) to the time of last quantifiable concentration (AUC0‐last) was calculated using the linear‐log trapezoidal rule. Elimination half‐life (t1/2) was calculated by the equation ln2/λz.
Statistical analyses were performed using SAS version 9.3 (Cary, NC, USA). Demographic data and baseline characteristics were listed and summarised. […] PK parameters were derived from plasma concentration vs. time data using a noncompartmental analysis in Phoenix WinNonlin version 7 (Certara Inc., Princeton, NJ, USA). Plasma concentration vs. time data and PK parameters were listed, and summarised by treatment, using descriptive statistics. Mean concentrations were calculated only if at least ⅔ of the individual concentrations were above the lower limit of quantification. […] Planned sampling times were used to summarise plasma‐concentration data; actual sampling times were used in the derivation of PK parameters.

[1] = 5 mg OD LSF fasting, Day 1, dose-normalised
[2] = 5 mg OD LSF fasting, Day 10, dose-normalised
[3] = 10 mg BID LSF fasting, Day 1, dose-normalised
[4] = 10 mg BID LSF fasting, Day 10, dose-normalised
[5] = 10 mg OD LSF fasting, Day 1, dose-normalised
[6] = 10 mg OD LSF fasting, Day 10, dose-normalised
[7] = human, plasma, po, 5 mg, 5 mg OD LSF fasting, Day 1, plasma
[8] = human, plasma, po, 5 mg, 5 mg OD LSF fasting, Day 10, mean (CV%)
[9] = human, plasma, po, 5 mg, 5 mg OD LSF fasting, Day 10, plasma
[10] = human, plasma, po, 10 mg, 10 mg BID LSF fasting, Day 1, plasma
[11] = human, plasma, po, 10 mg, 10 mg BID LSF fasting, Day 10, mean (CV%)
[12] = human, plasma, po, 10 mg, 10 mg BID LSF fasting, Day 10, plasma
[13] = human, plasma, po, 10 mg, 10 mg OD LSF fasting, Day 1, plasma
[14] = human, plasma, po, 10 mg, 10 mg OD LSF fasting, Day 10, mean (CV%)
[15] = human, plasma, po, 10 mg, 10 mg OD LSF fasting, Day 10, plasma

What does the source list for `CC(C)C[C@H]1C(=O)O[C@H](Cc2ccc(N3CCOCC3)cc2)C(=O)N(C)[C@@H](CC(C)C)C(=O)O[C@H](C)C(=O)N(C)[C@@H](CC(C)C)C(=O)O[C@H](Cc2ccc(N3CCOCC3)cc2)C(=O)N(C)[C@@H](CC(C)C)C(=O)O[C@H](C)C(=O)N1C` [emodepside]?
AUC 0–24 /D [1]: 115 (19.7) [h.ng/mL]/mg; C max /D [1]: 18.8 (17.8) [ng/mL]/mg; Tmax (5 mg OD LSF fasting, Day 1, median (range)): 1.00 (1.00–1.07) h; AUC 0–24 /D [2]: 338 (31.3) [h.ng/mL]/mg; AUC last /D [2]: 3872 (29.9) [h.ng/mL]/mg; C max /D [2]: 29.9 (17.9) [ng/mL]/mg; λ z (5 mg OD LSF fasting, Day 10, mean (CV%)): 0.00166 (42.6) 1/h; Terminal t ½ (5 mg OD LSF fasting, Day 10, mean (CV%), geometric mean): 419 (42.6) h; Tmax (5 mg OD LSF fasting, Day 10, median (range)): 1.00 (1.00–1.50) h; t ½ 0–24 (dominant half-life) (5 mg OD LSF fasting): 26.9 (52.4) h; AUC 0–24 /D [3]: 71.4 (26.5) [h.ng/mL]/mg; C max /D [3]: 16.0 (20.4) [ng/mL]/mg; Tmax (10 mg BID LSF fasting, Day 1, median (range)): 1.00 (1.00–1.58) h; AUC 0–24 /D [4]: 490 (35.8) [h.ng/mL]/mg; AUC last /D [4]: 5955 (29.1) [h.ng/mL]/mg; C max /D [4]: 34.9 (27.1) [ng/mL]/mg; λ z (10 mg BID LSF fasting, Day 10, mean (CV%)): 0.00137 (56.9) 1/h; t ½ 0–24 (dominant half-life) (10 mg BID LSF fasting): 33.2 (55.0) h; Cmax/Ctrough ratio (10 mg BID LSF): 1.9; AUC 0–24 /D [5]: 113 (32.7) [h.ng/mL]/mg; C max /D [5]: 18.6 (21.3) [ng/mL]/mg; AUC 0–24 /D [6]: 349 (44.2) [h.ng/mL]/mg; AUC last /D [6]: 4065 (43.5) [h.ng/mL]/mg; C max /D [6]: 28.7 (39.7) [ng/mL]/mg; λ z (10 mg OD LSF fasting, Day 10, mean (CV%)): 0.00154 (30.6) 1/h; Tmax (10 mg OD LSF fasting, Day 10, median (range)): 1.25 (1.00–2.00) h; t ½ 0–24 (dominant half-life) (10 mg OD LSF fasting): 18.4 (30.0) h; Cmax/Ctrough ratio (10 mg OD LSF): 3.0; Emodepside levels at the final sampling timepoint (507 hours after the last morning dose, LLOQ 1 ng/mL): still quantifiable in all subjects; Geometric mean Cmax on Day 10, 10 mg BID group vs 10 mg OD group (LSF): 1.2 fold; MRT (human, plasma, po, 5 mg, 5 mg OD LSF fasting): 7.28 h; AUC 0–24 [7]: 574 ng·h/mL; Cmax [7]: 93.8 ng/mL; CL/F [8]: 49.3 mL/min; Vd/F [8]: 1790 L; AUC 0–24 [9]: 1690 ng·h/mL; Cmax [9]: 149 ng/mL; MRT (human, plasma, po, 10 mg, 10 mg BID LSF fasting): 10.8 h; AUC 0–24 [10]: 1430 ng·h/mL; Cmax [10]: 160 ng/mL; half-life (human, plasma, po, 10 mg, 10 mg BID LSF fasting, Day 10, mean (CV%), geometric mean): 508 h; CL/F [11]: 59.3 mL/min; Vd/F [11]: 2610 L; Tmax (human, plasma, po, 10 mg, 10 mg BID LSF fasting, Day 10, median (range), read-out: t max): 1.5 h; AUC 0–24 [12]: 4900 ng·h/mL; Cmax [12]: 349 ng/mL; MRT (human, plasma, po, 10 mg, 10 mg OD LSF fasting): 7 h; Tmax (human, plasma, po, 10 mg, 10 mg OD LSF fasting, Day 1, median (range), read-out: t max): 1.25 h; AUC 0–24 [13]: 1140 ng·h/mL; Cmax [13]: 186 ng/mL; half-life (human, plasma, po, 10 mg, 10 mg OD LSF fasting, Day 10, mean (CV%), geometric mean): 450 h; CL/F [14]: 47.8 mL/min; Vd/F [14]: 1860 L; AUC 0–24 [15]: 3490 ng·h/mL; Cmax [15]: 287 ng/mL
